{"source": "paper PMC11211886", "about": "(Frontiers in Pharmacology, 2024)", "key": {"CYP2C8": {"target": "T1, CYP2C8 (Homo sapiens, UniProt P10632)", "T1 construct": "tissue Life Technologies (Durham, NC, USA); host or cells: human liver microsomes", "T1 sequence (P10632 1-490)": "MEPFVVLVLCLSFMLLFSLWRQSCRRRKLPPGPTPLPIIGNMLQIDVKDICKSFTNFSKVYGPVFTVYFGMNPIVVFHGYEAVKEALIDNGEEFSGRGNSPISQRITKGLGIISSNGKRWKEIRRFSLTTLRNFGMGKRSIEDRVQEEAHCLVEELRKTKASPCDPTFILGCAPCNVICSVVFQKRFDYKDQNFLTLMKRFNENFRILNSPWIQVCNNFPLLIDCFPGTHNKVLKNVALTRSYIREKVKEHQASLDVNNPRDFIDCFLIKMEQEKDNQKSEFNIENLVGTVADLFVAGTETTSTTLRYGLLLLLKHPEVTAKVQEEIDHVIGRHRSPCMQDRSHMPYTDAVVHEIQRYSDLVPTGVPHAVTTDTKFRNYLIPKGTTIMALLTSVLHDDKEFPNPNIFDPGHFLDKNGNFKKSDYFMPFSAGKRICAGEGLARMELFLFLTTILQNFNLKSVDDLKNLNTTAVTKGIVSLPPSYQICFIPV", "test": "Reversible CYP inhibition in HLM, CYP2C8 (paclitaxel)", "format": "in vitro ADME", "conditions": "for enzyme activity remaining: CYP2C8, HLM", "description": "The markers used to determine the activities of CYP isoforms were phenacetin O-deethylation for CYP1A2 (probe substrate: 50 µM phenacetin), bupropion hydroxylation for CYP2B6 (probe substrate: 70 µM bupropion), paclitaxel 6α-hydroxylation for CYP2C8 (probe substrate: 10 µM paclitaxel), diclofenac 4′-hydroxylation for CYP2C9 (probe substrate: 5 µM diclofenac), S-(+)-mephenytoin 4′-hydroxylation for CYP2C19 (probe substrate: 20 µM S-(+)-mephenytoin), dextromethorphan O-demethylation for CYP2D6 (probe substrate: 6 µM dextromethorphan), chlorzoxazone 6′-hydroxylation for CYP2E1 (probe substrate: 70 µM chlorzoxazone), and testosterone 6β-hydroxylation and midazolam 1′-hydroxylation for CYP3A4/5 (probe substrate: 45 µM testosterone and 5 µM midazolam). […] Alpha-naphthoflavone (0.04 µM), 2-phenyl-2-(1-piperidinyl)propane (5 µM), quercetin (1 µM), sulfaphenazole (0.5 µM), ticlopidine (4 µM), quinidine (0.2 µM), diethyldithiocarbamate (20 µM), and ketoconazole (0.05 µM) were used as positive inhibitors of CYP1A2, 2B6, 2C8, 2C9, 2C19, 2D6, 2E1, and 3A4, respectively. The vehicle control was prepared in the same composition as inhibitor solutions but free of inhibitors. The concentrations of probe substrates were close to Km values that were determined in-house and within the range recommended by the FDA ([Huang et al., 2007]). Reaction mixtures were incubated at 37°C for 5, 20, or 30 min, depending on the probe substrates of CYP isoforms. The reactions were terminated by adding cold acetonitrile containing IS, and the terminated incubation mixtures were centrifuged at 3,000 g for 10 min before LC-MS/MS analysis."}, "MATE1": {"target": "T2, MATE1 (Homo sapiens, UniProt Q96FL8)", "T2 sequence (Q96FL8 1-570)": "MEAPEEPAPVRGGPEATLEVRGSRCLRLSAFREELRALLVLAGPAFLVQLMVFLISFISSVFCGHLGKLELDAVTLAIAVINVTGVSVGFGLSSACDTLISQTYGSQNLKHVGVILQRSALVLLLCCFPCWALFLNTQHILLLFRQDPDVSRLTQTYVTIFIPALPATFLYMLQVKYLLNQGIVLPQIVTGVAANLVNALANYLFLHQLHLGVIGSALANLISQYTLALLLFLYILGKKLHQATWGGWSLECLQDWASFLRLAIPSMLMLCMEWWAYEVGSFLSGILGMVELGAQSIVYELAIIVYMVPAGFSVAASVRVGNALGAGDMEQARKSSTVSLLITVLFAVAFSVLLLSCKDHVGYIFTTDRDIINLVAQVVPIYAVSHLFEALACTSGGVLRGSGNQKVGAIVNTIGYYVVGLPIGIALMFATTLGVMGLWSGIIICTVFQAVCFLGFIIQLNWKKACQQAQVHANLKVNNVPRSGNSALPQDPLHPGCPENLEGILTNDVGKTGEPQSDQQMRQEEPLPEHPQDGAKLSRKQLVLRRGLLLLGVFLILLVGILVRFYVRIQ", "test": "MATE1 inhibition, tetraethylammonium uptake in transfected HEK293 cells", "description": "The pre-incubation solutions were removed, and incubation solutions containing the inhibitors and probe substrates (or transport buffer containing an equal volume of vehicle control and probe substrates) were added and incubated at 37°C for 2 min (5 min for OATP1B3). The probe substrate for OAT1 was 4-aminohippuric acid (10 μM), for OAT3 was estrone 3-sulfate (10 μM), for OCT2 was metformin (100 μM), for OATP1B1 was β-estradiol 17-(β-D-glucuronide) (5 μM), for OATP1B3 was β-estradiol 17-(β-D-glucuronide) (10 μM), and for MATE1 and MATE2-K was tetraethylammonium (10 μM). After incubation, cells were washed three times with ice-cold transport buffer (25 mM HEPES, pH 7.4, pH 8.0 for overexpressing MATE1 and MATE2-K HEK293 cells) and lysed in distilled water. The concentrations of probe substrates were determined by LC-MS/MS, and a BCA Kit (Solarbio ®Life Sciences, Beijing, China) was used to determine the protein content in the cell lysate.\nwhere C is the concentration of the drug in the cell lysate (nM), P is the protein concentration of the cell lysate (mg/mL), and T is the incubation time (minute). Uptake ratetest compound is the uptake rate of the substrate in the presence of the test compound. Uptake ratevehicle control is the uptake rate of the substrate in the presence of the vehicle control. Uptake ratepassive is the uptake rate of the substrate in the presence of the positive inhibitor at the top test concentration."}}, "note": "Where “and” joins values, the source holds several entries; their conditions need not be identical. Equal entries are not always repeated.", "data": [{"smiles": "C[C@H](Nc1ncnc(N)c1C#N)c1cc2ncc(Cl)n2nc1-c1ccccc1", "note": "[Amdizalisib]", "values": [{"measurement": "enzyme activity remaining", "setting": "CYP2C8; 0.08 μM", "result": "110% and 105%"}, {"measurement": "enzyme activity remaining", "setting": "CYP2C8; 0.4 μM", "result": "105% and 109%"}, {"measurement": "enzyme activity remaining", "setting": "CYP2C8; 2 μM", "result": "98.8% and 104%"}, {"measurement": "enzyme activity remaining", "setting": "CYP2C8; 10 μM", "result": "67.3% and 76.5%"}, {"measurement": "enzyme activity remaining", "setting": "CYP2C8; 50 μM", "result": "38.0% and 39.6%"}, {"measurement": "IC50", "setting": "CYP2C8; HLM, reversible, without pre-incubation", "result": 30.4, "unit": "µM"}, {"measurement": "IC50", "setting": "MATE1", "result": 16.2, "unit": "µM"}, {"measurement": "calculated R value (MATE-1)", "setting": "MATE1", "result": "< 1.1"}, {"measurement": "Percentage transported", "setting": "MATE1; MATE1, compound 0.3 μM", "result": 98.0, "unit": "%"}, {"measurement": "Uptake rate", "setting": "MATE1; MATE1, compound 0.3 μM", "result": "244±23.4", "unit": "pmol/mg protein/min"}, {"measurement": "Percentage transported", "setting": "MATE1; MATE1, compound 1 μM", "result": 86.1, "unit": "%"}, {"measurement": "Uptake rate", "setting": "MATE1; MATE1, compound 1 μM", "result": "216±1.37", "unit": "pmol/mg protein/min"}, {"measurement": "Percentage transported", "setting": "MATE1; MATE1, compound 3 μM", "result": 73.2, "unit": "%"}, {"measurement": "Uptake rate", "setting": "MATE1; MATE1, compound 3 μM", "result": "186±12.4", "unit": "pmol/mg protein/min"}, {"measurement": "Percentage transported", "setting": "MATE1; MATE1, compound 10 μM", "result": 49.2, "unit": "%"}, {"measurement": "Uptake rate", "setting": "MATE1; MATE1, compound 10 μM", "result": "129±1.08", "unit": "pmol/mg protein/min"}, {"measurement": "Percentage transported", "setting": "MATE1; MATE1, compound 30 μM", "result": 47.8, "unit": "%"}, {"measurement": "Uptake rate", "setting": "MATE1; MATE1, compound 30 μM", "result": "126±22.8", "unit": "pmol/mg protein/min"}, {"measurement": "Percentage transported", "setting": "MATE1; MATE1, compound 100 μM", "result": 23.6, "unit": "%"}, {"measurement": "Uptake rate", "setting": "MATE1; MATE1, compound 100 μM", "result": "68.4±2.28", "unit": "pmol/mg protein/min"}, {"measurement": "inhibition at 2 min, 0.3 µM", "setting": "MATE1; human, pH 8", "result": 2.01, "unit": "%"}, {"measurement": "inhibition at 2 min, 1 µM", "setting": "MATE1; human, pH 8", "result": 13.9, "unit": "%"}, {"measurement": "inhibition at 2 min, 3 µM", "setting": "MATE1; human, pH 8", "result": 26.8, "unit": "%"}, {"measurement": "inhibition at 2 min, 10 µM", "setting": "MATE1; human, pH 8", "result": 50.8, "unit": "%"}, {"measurement": "inhibition at 2 min, 30 µM", "setting": "MATE1; human, pH 8", "result": 52.2, "unit": "%"}, {"measurement": "inhibition at 2 min, 100 µM", "setting": "MATE1; human, pH 8", "result": 76.4, "unit": "%"}]}]}
